Laboratory results as given in US9260473B2, “Bivalent multifunctional ligands targeting Aβ oligomers as treatment for Alzheimer's disease” (Virginia Commonwealth University, priority 2010, dated 2016).

Experiments:
AβOs = assay: Western blot assay of AβOs formation in MC65 cells (6E10 antibody); type: cell-based, human; conditions: 10 μM, 24 hrs after removal of TC
From the text: Inhibition of AβOs production by designed BMAOIs. […] The whole cell assay is a composite of not only Aβ oligomerization inhibition but also permeability, stability and other factors will validate the accessibility and function of our BMAOIs. MC65 is a human neuroblastoma cell line that conditionally expresses C99, the C-terminus fragment of APP using tetracycline (TC) as transgene suppressor.^38 Upon removal of TC, these cells can produce intracellular Aβ aggregates including small AβOs. […] All BMAOIs were first evaluated at a single concentration of 10 μM. Candidate compounds with inhibitory activities at this concentration were further evaluated in a dose-dependent manner in the following assays. […]
Western blot assay. […] Pellet was lysed by sonication in 1× lysis buffer (62.5 mM Tris base, pH6.8, 2% SDS, 50 mM DTT, 10% glycerol, 0.1% bromphenol blue, and […] each chymostatin, leupeptin, aprotinin, pepstatin, and soybean trypsin inhibitor) and protein level was determined using Coomassie Protein Assay Reagent (Pierce, Rockford, Ill.). […]

SH-SY5Y cells = assay: Cytotoxicity assay in differentiated SH-SY5Y cells treated with AβOs; type: cell-based, human; conditions: AβOs 1 μM, 48 hrs, all of the tested concentrations
in vitro = conditions: human, Caco-2
Procedure: Assessment of permeability and P-glycoprotein using Caco-2 cell model. […] To test whether 14 has the potential to reach the brain, we determined its permeability and transport directionality using the Caco-2 model.^48 Although the Caco-2 cell monolayer model is derived from the colon rather than the brain, this model expresses efflux transporters such as P-glycoprotein which are also expressed at the BBB.
Caco-2 permeability assay. Caco-2 cells (ATCC, Manassas, Va.) were cultured in high-glucose DMEM supplemented with 10% FBS and used between passages 30-50. Caco-2 cells were plated on 12-well polyester transwell inserts ([…] pore size) (Coming #3460) at a density of 80,000 cells/cm^2 and grown to 100% confluence (21 days). Filters were rinsed in Hank's balanced salt solution (HBSS) and test compounds (10 μM) were added to either the apical (0.5 mL) or basolateral (1.5 mL) side and incubated at 37° C. with shaking (100 rpm). Samples (200 μL) were removed at 30, 60, and 120 minutes with replacement of an equal volume of the appropriate buffer containing or lacking the compounds. Samples were stored at −20° C. until analysis. After 120 minutes, lucifer yellow was added to the donor chamber, with additional sampling as above at 10, 20, and 30 minutes. Lucifer yellow was analyzed by fluorescence (excitation 450 nm, emission 528 nm) in a Synergy 2 microplate reader. […] Buffer samples (200 μL) were mixed with acetonitrile (100 μL) and acetic acid (2 μL), vortexed and centrifuged at 4° C. for 5 minutes at 12,000 ref. Supernatants (100 μL) were injected onto an Alltech Alltima HP C18 4.6×100 mm 3 μm column and eluted with 38% acetonitrile, 62% aqueous (1% acetic acid in water) at 1.0 mL/min. To improve sensitivity over UV detection, fluorescence (Waters 2475) at the excitation/emission wavelengths of 443/533 and 274/305 (nm) for 1 and 14, respectively, was also detected. Permeability was determined according to Fick's Law. Efflux transport activity was defined as a permeability directional ratio (efflux ratio) ≧2.

Aβ42 fibrils [1] = target: T1, Aβ42 fibrils (Homo sapiens, UniProt P05067); assay: Fluorescence emission before and after mixing with Aβ42 fibrils; type: binding; conditions: compound 1 μM
T1 construct: The monomers, oligomers and fibrils of Aβ42 were prepared according to established protocols and confirmed by TEM
Procedure: FIG. 9. Fluorescence emission of 14 (1 μM) before and after mixing with Aβ42 fibrils.
To examine the change of fluorescence properties upon binding to Aβ42, we compared the fluorescence properties of free 14 in aqueous solution to its fluorescence properties in the presence of Aβ42 fibrils as this chemical probe will be used to detect Aβ plaques. […] A blue shift in the emission spectra of 10 nm was also observed upon association with Aβ42 fibrils.

[2] = test system: intracellular oxidative stress; assay: DCFH-DA antioxidation assay in MC65 cells; type: cell-based, human; conditions: −TC, 24 hrs
Procedure: DCFH-DA antioxidation assay. MC65 cells were seeded in 96-well plates (4×10^4 cells/well). After incubation at 37° C., 5% CO2 for 24 hrs, the medium was removed and washed with PBS. Opti-MEM and test compounds were added (+TC, −TC, and blank with only test compounds). MC65 cells were incubated at 37° C., 5% CO2 for 24 hrs. Then DCFH-DA in Opti-MEM was added to each well (final DCFH-DA concentration was 25 uM) and incubate at 37° C., 5% CO2 for 30 min. The medium was removed and replaced with fresh opti-MEM and plates were read for fluorescence intensity at 485 nm (excitation)/530 nm (emission) using FlexStation III plate reader (Molecular Devices).

Aβ42 fibrils [3] = target: T1, Aβ42 fibrils; assay: Fluorescence polarization binding to Aβ42 fibrils; conditions: compound 1 μM, 3 hrs, read-out: apparent binding constant (Kd) for Aβ42 fibrils
Procedure: FIG. 8A-C. BMAOI 14 binds to Aβ42 monomers, oligomers, and fibrils, but not BSA. A. The monomers, oligomers and fibrils of Aβ42 were prepared according to established protocols and confirmed by TEM; B. Compound 14 (1 μM) was incubated with different forms of Aβ42 at indicated concentrations for 3 hrs. Then, fluorescence polarization change of 14 was recorded and the binding affinity was calculated; C. Compound 14 was incubated with BSA as described in B and the binding affinity was calculated.
To determine the binding affinity of 14 to Aβ, we evaluated changes in fluorescence polarization values of this probe at different 14:Aβ ratios for monomeric, oligomeric, and fibrillary Aβ species, respectively. Aβ42 is chosen to evaluate the binding of probe as it is the major and most sticky amyloid peptide found in AD plaques.^1 The formation of different Aβ42 species was confirmed by transmission electron microscope (TEM) as shown in FIG. 8A. […] It appears that 14 binds to Aβ42 with micromolar affinity and slightly favors […] fibrils over monomers and oligomers.

T1 sequence (P05067 672-713 limits assumed): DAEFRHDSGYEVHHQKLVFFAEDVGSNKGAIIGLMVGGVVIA

## COc1cc(C=CC(=O)C(Cc2cn(CCCCCCNC(=O)CCNC(=O)CCNC(=O)COC3CCC4(C)C(=CCC5C4CCC4(C)C(C(C)CCCC(C)C)CCC54)C3)nn2)C(=O)C=Cc2ccc(O)c(OC)c2)ccc1O (stereo not drawn) [BMAOI 14]
AβOs
  inhibition of the formation of AβOs (Western blot): significantly inhibited
SH-SY5Y cells
  protection of SH-SY5Y cell viability from AβOs: completely restored the cell viability
In vitro
  Papp A→B at 120 min, 10 µM: 7.1 ×10⁻⁶ cm/s
  Papp B→A at 120 min, 10 µM: 4.7 ×10⁻⁶ cm/s
  efflux ratio at 120 min, 10 µM: 0.63
Aβ42 fibrils [1]; Aβ42=5 μM, excitation 430 nm
  increase of emission intensity upon binding to Aβ42 fibrils: 4.5 fold
Aβ42 fibrils [1]
  blue shift in the emission spectra upon association with Aβ42 fibrils: 10 nm
[2]
  suppression of intracellular oxidative stress (DCFH-DA fluorescence): suppressed the intracellular oxidative stress in a dose-depndent manner
Aβ42 fibrils [3]
  Kd: 830 nM
